Assay results published in ChEMBL document CHEMBL1201862, “PubChem BioAssay data set” (2004).
Values joined by “and” are separate entries in the source; they are usually repeats but may differ in a detail not shown here. Equal entries are not always repeated. Active and inactive are the calls of the source.

Key:
[1] = biological target: Apoptotic protease-activating factor 1 (Homo sapiens, UniProt O14727); experiment: SAR analysis of small molecule Activators of Apaf-1 in a Fluorescent assay.; type: functional; details: read-out: EC50_Mean;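 also: caspase-3 cleavage of fluorogenic Rh110 DEVD substrate downstream of apoptosome activation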
Chain of Apoptotic protease-activating factor 1 (O14727 whole entry): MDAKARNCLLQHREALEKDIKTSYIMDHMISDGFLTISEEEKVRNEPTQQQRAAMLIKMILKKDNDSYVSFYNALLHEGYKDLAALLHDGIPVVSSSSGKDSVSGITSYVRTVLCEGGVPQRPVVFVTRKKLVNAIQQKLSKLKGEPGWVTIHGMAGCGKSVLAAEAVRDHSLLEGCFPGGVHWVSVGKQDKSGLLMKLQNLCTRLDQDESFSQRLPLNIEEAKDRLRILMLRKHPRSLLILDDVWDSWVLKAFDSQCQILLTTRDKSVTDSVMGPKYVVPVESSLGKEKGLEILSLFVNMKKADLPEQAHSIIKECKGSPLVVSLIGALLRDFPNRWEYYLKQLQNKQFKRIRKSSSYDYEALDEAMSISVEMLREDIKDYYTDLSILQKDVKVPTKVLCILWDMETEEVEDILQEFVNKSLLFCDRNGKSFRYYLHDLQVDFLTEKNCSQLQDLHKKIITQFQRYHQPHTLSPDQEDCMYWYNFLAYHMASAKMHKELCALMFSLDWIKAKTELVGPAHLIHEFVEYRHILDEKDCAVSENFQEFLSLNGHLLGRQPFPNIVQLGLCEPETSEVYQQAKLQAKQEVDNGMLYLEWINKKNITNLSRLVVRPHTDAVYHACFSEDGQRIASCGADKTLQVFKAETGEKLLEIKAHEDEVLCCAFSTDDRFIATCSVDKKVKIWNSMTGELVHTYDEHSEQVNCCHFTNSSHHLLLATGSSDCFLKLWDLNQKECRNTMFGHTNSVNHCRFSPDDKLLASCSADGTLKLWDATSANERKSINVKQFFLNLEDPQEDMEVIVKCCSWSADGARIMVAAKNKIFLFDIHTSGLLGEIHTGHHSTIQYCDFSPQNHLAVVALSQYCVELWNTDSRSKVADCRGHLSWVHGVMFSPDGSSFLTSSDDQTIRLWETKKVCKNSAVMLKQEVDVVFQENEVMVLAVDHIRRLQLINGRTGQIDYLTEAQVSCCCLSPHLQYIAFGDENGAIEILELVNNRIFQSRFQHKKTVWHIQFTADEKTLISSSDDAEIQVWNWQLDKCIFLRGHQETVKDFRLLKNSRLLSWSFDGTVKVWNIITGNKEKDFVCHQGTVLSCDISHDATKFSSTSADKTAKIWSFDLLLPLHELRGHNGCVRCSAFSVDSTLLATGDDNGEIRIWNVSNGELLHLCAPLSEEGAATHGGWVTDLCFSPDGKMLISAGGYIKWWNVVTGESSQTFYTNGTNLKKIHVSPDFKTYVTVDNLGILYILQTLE

[2] = biological target: Protein disulfide-isomerase (Homo sapiens, UniProt P07237); experiment: inhibition of PDI-driven insulin aggregation – biochemical, turbidity, absorbance, cherry-picked samples, dose response (AID 602350); type: functional
Chain of Protein disulfide-isomerase (P07237 whole entry, the tested form may be a part): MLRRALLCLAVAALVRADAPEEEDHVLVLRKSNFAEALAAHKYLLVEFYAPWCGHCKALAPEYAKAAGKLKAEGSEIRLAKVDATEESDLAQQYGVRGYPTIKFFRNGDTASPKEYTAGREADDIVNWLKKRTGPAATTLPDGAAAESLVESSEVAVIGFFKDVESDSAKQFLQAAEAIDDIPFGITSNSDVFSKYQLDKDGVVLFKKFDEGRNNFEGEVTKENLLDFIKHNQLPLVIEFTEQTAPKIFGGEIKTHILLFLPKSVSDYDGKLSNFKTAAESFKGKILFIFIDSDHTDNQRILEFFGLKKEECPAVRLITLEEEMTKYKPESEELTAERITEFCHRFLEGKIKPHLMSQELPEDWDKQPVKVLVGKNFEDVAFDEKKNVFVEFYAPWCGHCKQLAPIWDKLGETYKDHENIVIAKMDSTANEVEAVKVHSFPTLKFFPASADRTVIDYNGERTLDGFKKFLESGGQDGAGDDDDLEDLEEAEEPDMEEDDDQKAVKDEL

[3] = biological target: T1, Sentrin-specific protease 6 (Homo sapiens, UniProt Q9GZR1); experiment: inhibition of human SENP6 catalytic domain – biochemical, luminescence, set 2, SAR follow-up (AID 588598); type: functional
T1 sequence (Q9GZR1 whole entry): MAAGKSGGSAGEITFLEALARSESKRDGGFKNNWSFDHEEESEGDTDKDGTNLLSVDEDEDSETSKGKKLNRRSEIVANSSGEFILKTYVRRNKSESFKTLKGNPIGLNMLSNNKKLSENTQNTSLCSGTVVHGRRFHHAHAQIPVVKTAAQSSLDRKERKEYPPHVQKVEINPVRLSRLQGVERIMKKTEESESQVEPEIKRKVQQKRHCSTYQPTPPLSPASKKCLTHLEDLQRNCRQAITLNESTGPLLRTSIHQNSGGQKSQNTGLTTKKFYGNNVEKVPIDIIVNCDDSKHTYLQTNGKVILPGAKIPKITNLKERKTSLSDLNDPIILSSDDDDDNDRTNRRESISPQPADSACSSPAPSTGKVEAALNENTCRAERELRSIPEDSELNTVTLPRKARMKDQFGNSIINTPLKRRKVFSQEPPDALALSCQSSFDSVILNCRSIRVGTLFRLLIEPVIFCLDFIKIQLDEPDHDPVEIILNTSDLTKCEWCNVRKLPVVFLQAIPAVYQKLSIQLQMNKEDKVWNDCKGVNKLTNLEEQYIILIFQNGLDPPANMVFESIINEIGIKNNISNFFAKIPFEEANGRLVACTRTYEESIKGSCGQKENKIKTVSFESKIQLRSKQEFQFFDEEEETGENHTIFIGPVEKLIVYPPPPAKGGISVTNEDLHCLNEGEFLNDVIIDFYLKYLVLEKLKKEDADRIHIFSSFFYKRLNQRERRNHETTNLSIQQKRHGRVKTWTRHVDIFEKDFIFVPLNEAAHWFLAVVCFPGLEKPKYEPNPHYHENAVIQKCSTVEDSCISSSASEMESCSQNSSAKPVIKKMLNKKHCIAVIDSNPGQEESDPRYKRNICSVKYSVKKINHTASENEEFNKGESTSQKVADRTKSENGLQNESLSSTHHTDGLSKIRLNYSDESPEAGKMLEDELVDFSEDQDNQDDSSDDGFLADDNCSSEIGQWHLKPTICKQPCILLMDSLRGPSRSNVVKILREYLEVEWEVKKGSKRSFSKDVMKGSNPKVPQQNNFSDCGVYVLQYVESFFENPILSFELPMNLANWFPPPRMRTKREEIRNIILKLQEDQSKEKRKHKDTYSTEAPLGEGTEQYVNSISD

[4] = biological target: T2, Sentrin-specific protease 8 (Homo sapiens, UniProt Q96LD8); experiment: inhibition of sentrin protease 8 – biochemical, luminescence, set 2, SAR follow-up (AID 588601); type: functional
T2 sequence (Q96LD8 whole entry): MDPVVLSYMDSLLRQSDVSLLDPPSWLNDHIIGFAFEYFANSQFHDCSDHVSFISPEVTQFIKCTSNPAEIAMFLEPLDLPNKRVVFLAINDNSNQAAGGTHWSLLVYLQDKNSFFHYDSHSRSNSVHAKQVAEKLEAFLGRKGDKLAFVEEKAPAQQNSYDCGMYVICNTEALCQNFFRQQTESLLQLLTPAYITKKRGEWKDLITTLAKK

Caspase-3 [5] = biological target: T3, Caspase-3 (Homo sapiens, UniProt P42574); experiment: inhibition of recombinant caspase-3 activity – biochemical, luminescence, set 2, selectivity assay for SENP protease inhibitor project, SAR follow-up (AID 588599); type: functional
T3 sequence (P42574 whole entry): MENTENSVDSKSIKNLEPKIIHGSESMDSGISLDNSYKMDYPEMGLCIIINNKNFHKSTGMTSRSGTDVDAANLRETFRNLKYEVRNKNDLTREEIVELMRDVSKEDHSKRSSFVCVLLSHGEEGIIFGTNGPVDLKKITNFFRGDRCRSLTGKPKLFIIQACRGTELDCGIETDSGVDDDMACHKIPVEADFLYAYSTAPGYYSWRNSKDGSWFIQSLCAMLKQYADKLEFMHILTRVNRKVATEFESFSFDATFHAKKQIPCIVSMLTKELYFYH

[6] = biological target: T4, Sentrin-specific protease 7 (Homo sapiens, UniProt Q9BQF6); experiment: inhibition of human SENP7 cleavage activity – biochemical, luminescence, set 2, SAR follow-up (AID 588600); type: functional
T4 sequence (Q9BQF6 whole entry): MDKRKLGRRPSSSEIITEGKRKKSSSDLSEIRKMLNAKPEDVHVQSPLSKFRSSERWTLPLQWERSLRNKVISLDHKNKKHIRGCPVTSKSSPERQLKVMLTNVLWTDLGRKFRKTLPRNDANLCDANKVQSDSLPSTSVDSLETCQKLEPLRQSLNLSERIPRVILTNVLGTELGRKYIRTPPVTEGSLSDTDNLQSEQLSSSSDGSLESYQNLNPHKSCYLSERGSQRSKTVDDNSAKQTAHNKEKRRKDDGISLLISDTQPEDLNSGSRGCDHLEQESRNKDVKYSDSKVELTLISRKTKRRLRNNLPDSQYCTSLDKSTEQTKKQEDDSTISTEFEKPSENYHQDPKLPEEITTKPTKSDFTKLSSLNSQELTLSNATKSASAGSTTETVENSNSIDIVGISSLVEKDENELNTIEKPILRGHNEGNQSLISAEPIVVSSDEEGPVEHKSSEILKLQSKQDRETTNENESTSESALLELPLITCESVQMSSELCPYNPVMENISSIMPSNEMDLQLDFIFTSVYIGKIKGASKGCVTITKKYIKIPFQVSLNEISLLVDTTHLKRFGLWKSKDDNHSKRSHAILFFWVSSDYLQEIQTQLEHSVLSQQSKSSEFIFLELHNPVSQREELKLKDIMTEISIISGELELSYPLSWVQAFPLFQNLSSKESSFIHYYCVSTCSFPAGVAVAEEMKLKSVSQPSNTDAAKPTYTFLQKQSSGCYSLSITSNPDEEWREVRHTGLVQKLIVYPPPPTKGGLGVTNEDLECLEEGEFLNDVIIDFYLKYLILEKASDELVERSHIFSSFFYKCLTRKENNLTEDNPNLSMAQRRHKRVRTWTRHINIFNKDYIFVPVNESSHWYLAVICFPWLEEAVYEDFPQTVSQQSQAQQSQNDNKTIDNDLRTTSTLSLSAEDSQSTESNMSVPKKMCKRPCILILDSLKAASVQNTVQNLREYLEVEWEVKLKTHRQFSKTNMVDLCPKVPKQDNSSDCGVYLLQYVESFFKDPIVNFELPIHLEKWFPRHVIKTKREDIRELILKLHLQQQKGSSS

[7] = biological target: Benomyl/methotrexate resistance protein (Candida albicans, UniProt P28873); experiment: Candida albicans Mdr1 pump inhibition curves – singleplex, Cherry Pick1 hits, dose response (AID 588608); type: functional
Chain of Benomyl/methotrexate resistance protein (P28873 whole entry): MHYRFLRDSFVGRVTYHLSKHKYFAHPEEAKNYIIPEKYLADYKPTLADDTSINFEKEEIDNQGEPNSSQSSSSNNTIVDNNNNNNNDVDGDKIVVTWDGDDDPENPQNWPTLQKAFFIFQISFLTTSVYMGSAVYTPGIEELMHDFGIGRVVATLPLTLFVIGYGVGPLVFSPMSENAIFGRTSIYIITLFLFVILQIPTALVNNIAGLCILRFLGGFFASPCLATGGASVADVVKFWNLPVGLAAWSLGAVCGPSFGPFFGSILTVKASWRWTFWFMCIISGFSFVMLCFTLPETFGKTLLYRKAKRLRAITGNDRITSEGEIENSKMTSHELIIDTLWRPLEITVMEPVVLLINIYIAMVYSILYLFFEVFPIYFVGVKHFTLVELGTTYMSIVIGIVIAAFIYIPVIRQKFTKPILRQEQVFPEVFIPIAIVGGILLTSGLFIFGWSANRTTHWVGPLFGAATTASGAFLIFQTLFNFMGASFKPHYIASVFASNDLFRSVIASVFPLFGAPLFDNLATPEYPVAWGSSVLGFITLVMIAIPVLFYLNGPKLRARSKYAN

[8] = cAMP pathway inhibition in counterscreen cell line – TR-FRET cAMP detection, counter-screen for MC4R biased antagonist project, dose response (AID 602305); type: functional, cell-based;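 also: U2OS cells stimulated with forskolin near its EC80 as the cAMP inducer; potency is for inhibition of forskolin-stimulated cAMP signaling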
Melanocortin receptor 4 = Melanocortin receptor 4 (Homo sapiens, UniProt P32245); experiment: inhibitors of MC4R cAMP signaling – cell-based, TR-FRET, biased antagonists, dose response (AID 602298); type: functional;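 also: antagonist potency against agonist-stimulated cAMP production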
Chain of Melanocortin receptor 4 (P32245 whole entry): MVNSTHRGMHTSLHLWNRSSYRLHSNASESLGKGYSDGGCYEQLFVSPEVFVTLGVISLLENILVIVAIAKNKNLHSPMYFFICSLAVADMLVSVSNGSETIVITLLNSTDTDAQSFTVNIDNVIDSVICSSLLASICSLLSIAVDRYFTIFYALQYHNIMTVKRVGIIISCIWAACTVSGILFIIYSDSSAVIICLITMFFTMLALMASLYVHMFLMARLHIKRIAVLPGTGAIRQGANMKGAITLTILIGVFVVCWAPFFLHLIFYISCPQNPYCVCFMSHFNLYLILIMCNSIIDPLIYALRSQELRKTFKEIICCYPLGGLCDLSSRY

Streptococcus = experiment: GAS UMAA2166 growth inhibition – luminescence, BacTiterGlo, counter-screen for streptokinase expression inhibitor project, dose response (AID 1915); type: functional, organism-based;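 also: potency for reduction of bacterial viability or growth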
Hexokinase HKDC1 = biological target: T5, Hexokinase HKDC1 (Homo sapiens, UniProt Q2TB90); experiment: inhibition of HKDC1 glucose phosphorylation – biochemical, W721R variant, dose response (AID 504729); type: functional
T5 sequence (Q2TB90 whole entry): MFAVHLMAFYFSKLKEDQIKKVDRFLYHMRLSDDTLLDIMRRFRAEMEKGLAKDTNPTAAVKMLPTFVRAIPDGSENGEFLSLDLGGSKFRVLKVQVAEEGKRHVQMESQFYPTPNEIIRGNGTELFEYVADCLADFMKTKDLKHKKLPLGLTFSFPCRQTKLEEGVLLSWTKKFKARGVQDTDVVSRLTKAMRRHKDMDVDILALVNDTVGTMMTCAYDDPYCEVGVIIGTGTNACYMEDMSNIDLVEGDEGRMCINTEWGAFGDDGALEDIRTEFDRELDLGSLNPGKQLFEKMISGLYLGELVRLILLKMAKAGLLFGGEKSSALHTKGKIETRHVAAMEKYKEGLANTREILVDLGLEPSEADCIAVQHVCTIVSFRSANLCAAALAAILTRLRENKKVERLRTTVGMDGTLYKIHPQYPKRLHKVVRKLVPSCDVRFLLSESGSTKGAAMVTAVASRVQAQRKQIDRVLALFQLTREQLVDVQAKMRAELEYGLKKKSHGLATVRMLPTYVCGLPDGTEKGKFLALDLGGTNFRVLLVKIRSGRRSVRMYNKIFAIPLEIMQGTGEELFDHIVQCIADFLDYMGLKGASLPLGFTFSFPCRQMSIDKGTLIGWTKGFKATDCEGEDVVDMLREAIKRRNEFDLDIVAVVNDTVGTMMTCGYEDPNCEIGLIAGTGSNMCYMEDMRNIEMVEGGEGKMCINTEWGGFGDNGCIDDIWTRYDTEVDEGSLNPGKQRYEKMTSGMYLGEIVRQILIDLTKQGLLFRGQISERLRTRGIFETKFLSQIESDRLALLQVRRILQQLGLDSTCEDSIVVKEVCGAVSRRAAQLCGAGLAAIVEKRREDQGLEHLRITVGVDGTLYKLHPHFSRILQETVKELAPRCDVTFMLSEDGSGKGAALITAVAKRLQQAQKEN

Streptokinase A = biological target: T6, Streptokinase A (Streptococcus pyogenes serotype M1, UniProt P10520); experiment: viability-normalized secreted streptokinase activity reduction – plasminogen activation absorbance, OD405, dose response (AID 1914); type: functional, Streptococcus pyogenes M1 GAS;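 also: secreted streptokinase activity via plasminogen activation per viability signal from cell pellet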
T6 sequence (P10520 whole entry): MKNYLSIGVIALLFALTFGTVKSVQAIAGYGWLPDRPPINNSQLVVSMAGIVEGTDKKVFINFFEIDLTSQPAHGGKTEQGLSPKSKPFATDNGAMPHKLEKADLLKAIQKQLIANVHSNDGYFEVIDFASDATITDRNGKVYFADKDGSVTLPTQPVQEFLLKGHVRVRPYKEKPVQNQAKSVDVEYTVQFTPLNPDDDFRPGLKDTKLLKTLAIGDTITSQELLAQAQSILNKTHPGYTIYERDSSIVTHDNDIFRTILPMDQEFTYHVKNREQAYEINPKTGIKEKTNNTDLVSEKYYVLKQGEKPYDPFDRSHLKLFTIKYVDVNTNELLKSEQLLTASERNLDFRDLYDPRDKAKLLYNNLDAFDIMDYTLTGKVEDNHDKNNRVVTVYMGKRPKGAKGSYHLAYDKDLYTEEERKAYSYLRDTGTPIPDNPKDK

Genome polyprotein = Genome polyprotein (dengue virus type 2, UniProt P29990); experiment: flavivirus cap methylation enzyme inhibition – biochemical, confirmation dose response, primary screen (AID 588689); type: functional
Chain of Genome polyprotein (P29990 2492-3391 limits assumed): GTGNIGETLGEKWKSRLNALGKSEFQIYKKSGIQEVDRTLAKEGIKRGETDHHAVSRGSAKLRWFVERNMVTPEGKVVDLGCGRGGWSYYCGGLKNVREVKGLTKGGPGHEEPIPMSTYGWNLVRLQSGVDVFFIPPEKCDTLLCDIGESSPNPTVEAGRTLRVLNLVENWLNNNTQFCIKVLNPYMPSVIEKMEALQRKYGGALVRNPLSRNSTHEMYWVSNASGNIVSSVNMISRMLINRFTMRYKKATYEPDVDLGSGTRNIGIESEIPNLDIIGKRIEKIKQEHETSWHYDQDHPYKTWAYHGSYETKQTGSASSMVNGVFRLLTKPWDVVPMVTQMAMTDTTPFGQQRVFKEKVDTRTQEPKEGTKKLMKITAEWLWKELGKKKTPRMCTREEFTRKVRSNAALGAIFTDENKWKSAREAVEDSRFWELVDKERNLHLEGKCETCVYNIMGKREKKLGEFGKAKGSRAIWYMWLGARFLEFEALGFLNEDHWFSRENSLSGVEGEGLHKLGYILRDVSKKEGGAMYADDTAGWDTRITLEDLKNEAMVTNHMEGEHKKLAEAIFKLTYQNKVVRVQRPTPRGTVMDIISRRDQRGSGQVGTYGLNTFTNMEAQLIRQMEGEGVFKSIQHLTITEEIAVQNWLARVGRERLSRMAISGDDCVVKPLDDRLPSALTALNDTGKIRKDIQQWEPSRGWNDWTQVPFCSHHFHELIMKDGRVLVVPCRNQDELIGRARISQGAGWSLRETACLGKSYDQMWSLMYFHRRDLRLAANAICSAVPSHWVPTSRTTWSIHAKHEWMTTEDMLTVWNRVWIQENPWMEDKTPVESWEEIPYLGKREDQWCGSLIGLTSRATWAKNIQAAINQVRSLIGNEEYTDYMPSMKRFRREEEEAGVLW

Vero [9] = experiment: cells; type: functional; details: Chlorocebus sabaeus
Vero [10] = experiment: viability of Vero cells under compound – cytotoxicity control for flavivirus capping enzyme inhibitors (AID 588742); type: functional; details: Chlorocebus sabaeus
[11] = tested on: Streptococcus sp. 'group A'; experiment: Streptococcus pyogenes SK(-)GAS viability under kanamycin – luminescence, BacTiterGlo, confirmation, counter-screen for streptokinase expression inhibitor project, dose response (AID 1900); type: functional, organism-based
[12] = biological target: T4, Sentrin-specific protease 7; experiment: inhibition of human SENP7 cleavage activity – biochemical, luminescence, SAR follow-up (AID 504497); type: functional
[13] = biological target: T2, Sentrin-specific protease 8; experiment: inhibition of human SENP8 cleavage activity – biochemical, luminescence, SAR follow-up (AID 504501); type: functional
Caspase-3 [14] = biological target: T3, Caspase-3; experiment: SAR Analysis of small molecule inhibitors of Sentrin-specific proteases (SENPs) using a Caspase-3 Selectivity assay. [Related pubchem assays (depositor defined):AID2540, AID2599, AID434973, AID489001]; type: functional
[15] = biological target: T1, Sentrin-specific protease 6; experiment: SAR Analysis of small molecule inhibitors of Sentrin-specific protease 6 (SENP6) using a Luminescent assay. [Related pubchem assays (depositor defined):AID2582, AID2599]; type: functional

## Cc1cc(C)n(C(C)CC(=O)Nc2cccnc2)n1 (stereo not given)
[1]
  EC50: > 100 µM (inactive)

## C[C@@H]1CN([C@@H](C)CO)C(=O)c2cccc(NS(C)(=O)=O)c2O[C@H]1CN(C)Cc1ccc(Oc2ccccc2)cc1
[2]
  AC50: 19.5 µM (active) and 7.04 µM (active)

## CCOc1cc(/C=C(/C#N)c2nc(-c3ccc(C)cc3)no2)cc(Cl)c1O
[3]
  IC50: > 99 µM (inactive)
[4]
  IC50: > 99 µM (inactive)
Caspase-3 [5]
  IC50: > 99 µM (inactive)
[6]
  IC50: > 99 µM (inactive)

## COc1cccc(C2CC(c3ccccc3)=NN2S(=O)(=O)c2ccc(C)cc2)c1OC (stereo not given)
[7]
  EC50: 9.58 µM (active)

## Cc1[nH]c(C)c(C(=O)/C=C/c2ccc([N+](=O)[O-])cc2)c1C
[8]
  IC50: > 64.6 µM (inactive)
Melanocortin receptor 4
  IC50: > 64.6 µM (inactive)

## COc1ccc(C(=O)c2coc3c2C(=O)C(=O)c2ccccc2-3)cc1
Streptococcus
  EC50: 14.7 µM (active)
Hexokinase HKDC1
  IC50: 11.3 µM (active)
Streptokinase A
  EC50: > 150 µM (not active)
Genome polyprotein
  IC50: 34.5 µM (active)
Vero [9]
  CC50: > 25 µM (active)
Vero [10]
  CC50: > 40 µM (active)
[11]
  EC50: 1.84 µM (active)

## C[C@H](CO)N1C[C@H](C)[C@H](CN(C)Cc2ccccc2)Oc2ccc(NC(=O)Nc3ccccc3)cc2CC1=O
[2]
  AC50: 19.5 µM (active)

## CCN(CC)c1ccc(/C=C/c2noc(-c3ccccc3O)n2)cc1
[3]
  IC50: 30.7 µM (active)
[4]
  IC50: > 99 µM (inactive)
[12]
  IC50: 14 µM (active)
[13]
  IC50: 43 µM (active)
Caspase-3 [14]
  IC50: 48 µM (active)
Caspase-3 [5]
  IC50: > 99 µM (inactive)
[15]
  IC50: 35 µM (active)
[6]
  IC50: > 99 µM (inactive)
